Assay results published in patent publication US11865126B2, “Method for treating anxiety disorders, headache disorders, and eating disorders with psilocybin” (priority 2019, dated 2024).

Test system: healthy subjects
Assay: Phase 1 healthy volunteer study, single oral dose: treatment-emergent adverse events
Assay type: in vivo, human
Settings: 10 mg
Description: A Phase 1 randomized, double-blind, placebo-controlled study to evaluate the effect of psilocybin on cognitive and emotional processing as compared to placebo in healthy volunteers was conducted. The study investigated the short-term (Day 7) and long-term (Day 28) effects of moderate (10 mg) and high doses (25 mg) of psilocybin on key domains of cognition, such as episodic memory, attention, working and spatial memory, social cognition and elements of executive function, including cognitive flexibility.
90 healthy subjects were studied. Approximately 50% of the subjects were psilocybin-naïve. For subjects with prior psilocybin experience, the last exposure was at least 1 year prior to the signing of the Informed Consent Form (ICF). Approximately 50% of the subjects were female. Subjects were stratified by sex and age (18-35 years old; >35 years old).
Each subject was assigned 1 treatment bottle containing 5 capsules packaged in a double-blind fashion, depending on the randomized treatment arm, the bottle contained one of the following: • a. Psilocybin 10 mg: 2×5-mg oral psilocybin capsules plus 3× placebo capsules • b. Psilocybin 25 mg: 5×5-mg oral psilocybin capsules • c. Placebo: 5× placebo capsules
Each 5-mg oral psilocybin capsule comprised 5 mg crystalline psilocybin in the form of Polymorph A, 12.5 mg of SMCC 50, 79.5 mg of SMCC 90, 1 mg sodium starch glycolate, 1 mg colloidal silicon dioxide, and 1 mg sodium stearyl fumarate
Adverse events: Throughout the course of the study, all AEs were monitored and recorded. Each AE was classified according to the following criteria: • i. […] Moderate: The AE produces some impairment of functioning, but is not hazardous to the subject's health. • iii. Severe: The AE produces significant impairment of functioning or incapacitation and is a definite hazard to the subject's health.
Selected Adverse Events of included: • (a) Euphoric mood • (b) Dissociative disorder • (c) Hallucination • (d) Psychotic disorder • (e) Cognitive disorder • (f) Disturbance in attention • (g) Altered mood • (h) Impairment of psychomotor skills • (i) Inappropriate affect • (j) Overdose • (k) Intentional product misuse • (l) Illusion
For example, drug-induced hepatitis that resolved without evidence of hepatic failure would not be considered life threatening even though drug-induced hepatitis can be fatal. • (c) Inpatient hospitalization or prolongation of existing hospitalization. • (d) Persistent or significant disability/incapacity. • (e) Congenital anomaly/birth defect in the offspring of a subject who received psilocybin. • (f) Other: Important medical events that may not result in death, be life-threatening, or require hospitalization, may be considered an SAE when, based upon appropriate medical judgment, they may jeopardize the subject and may require medical or surgical intervention to prevent one of the outcomes listed in this definition. […] Visits:
Visit 3 (V3): Drug Administration (Day 0): The subject was asked to eat a light breakfast at least two hours prior to coming to the clinic for study drug administration. On Day 0 (V3), the subject underwent the SSTS, had vital signs obtained, medications reviewed, AEs recorded and eligibility reviewed prior to being randomized to study drug. The study drug was administered to up to six subjects simultaneously in individual beds separated by a curtain. The subject was invited to put on eyeshades and headphones, lie down and listen to calming music for the rest of the session (six hours). The subject was supported 1:1 with a chaperone and supervised by the study psychiatrist and lead therapist.
Recording of adverse events and prior/concomitant medication was performed at each visit.
During administration of psilocybin, each subject received one on one support from a trained assisting therapist and each dosing session was supervised by a study psychiatrist and a lead therapist. […]

CN(C)CCc1c[nH]c2cccc(OP(=O)(O)O)c12 [psilocybin]
AEs potentially related to study treatment, % of AEs in arm: 92.6%
Affect lability, worst severity Mild: Events: 3
Affect lability, worst severity Mild: N (%): 3 (10.0)
Affect lability, worst severity Moderate: Events: 2
Affect lability, worst severity Severe: Events: 0
Affect lability, worst severity Severe: N (%): 0
Affect lability: Events: 5
Any Selected TEAE: % of subjects: (90.0) %
Any Selected TEAE: N (%): 27
Any TEAE leading to death: Events: 0
Any TEAE leading to death: N (%): 0
Any TEAE leading to study discontinuation: Events: 0
Any TEAE leading to study discontinuation: N (%): 0
Any TEAE related to study treatment: % of subjects: (96.7) %
Any TEAE related to study treatment: N (%): 29
Any TEAE, worst severity Mild: Events: 12
Any TEAE, worst severity Mild: N (%): 6 (20.0)
Any TEAE, worst severity Moderate: Events: 38
Any TEAE, worst severity Severe: Events: 22
Any TEAE: % of subjects: 96.7%
Any serious TEAE related to study treatment: Events: 0
Any serious TEAE related to study treatment: N (%): 0
Any serious TEAE: Events: 0
Any serious TEAE: N (%): 0
Any severe TEAE: % of subjects: (33.3) %
Any severe TEAE: Events: 22
Any severe TEAE: N (%): 10
Emotional disorder, worst severity Mild: Events: 1
Emotional disorder, worst severity Moderate: Events: 1
Emotional disorder, worst severity Severe: Events: 0
Emotional disorder, worst severity Severe: N (%): 0
Emotional disorder: Events: 2
Euphoric mood, worst severity Mild: Events: 0
Euphoric mood, worst severity Mild: N (%): 0
Euphoric mood, worst severity Moderate: Events: 6
Euphoric mood, worst severity Moderate: N (%): 6 (20.0)
Euphoric mood, worst severity Severe: Events: 1
Euphoric mood: Events: 7
Fatigue, worst severity Mild: Events: 6
Fatigue, worst severity Mild: N (%): 6 (20.0)
Fatigue, worst severity Moderate: Events: 3
Fatigue, worst severity Severe: Events: 1
Fatigue: Events: 10
Fatigue: N (%): 9 (30.0)
Feeling abnormal, worst severity Mild: Events: 3
Feeling abnormal, worst severity Mild: N (%): 3 (10.0)
Feeling abnormal, worst severity Moderate: Events: 1
Feeling abnormal, worst severity Severe: Events: 0
Feeling abnormal, worst severity Severe: N (%): 0
Feeling abnormal: Events: 4
Feeling of relaxation: Events: 5
Feeling of relaxation: N (%): 3 (10.0)
Gastrointestinal disorders, worst severity Mild: Events: 3
Gastrointestinal disorders, worst severity Mild: N (%): 3 (10.0)
Gastrointestinal disorders, worst severity Moderate: Events: 1
Gastrointestinal disorders, worst severity Severe: Events: 0
Gastrointestinal disorders, worst severity Severe: N (%): 0
Gastrointestinal disorders: Events: 4
General disorders and administration site conditions, worst severity Mild: Events: 17
General disorders and administration site conditions, worst severity Moderate: Events: 6
General disorders and administration site conditions, worst severity Moderate: N (%): 3 (10.0)
General disorders and administration site conditions, worst severity Severe: Events: 1
General disorders and administration site conditions: Events: 27
Hallucination, auditory, worst severity Mild: Events: 1
Hallucination, auditory, worst severity Moderate: Events: 1
Hallucination, auditory, worst severity Severe: Events: 2
Hallucination, auditory: Events: 4
Hallucination, tactile: Events: 2
Hallucination, visual, worst severity Mild: Events: 3
Hallucination, visual, worst severity Mild: N (%): 3 (10.0)
Hallucination, visual, worst severity Moderate: Events: 8
Hallucination, visual, worst severity Severe: Events: 7
Hallucination, visual: Events: 20
Hallucination, worst severity Mild: Events: 0
Hallucination, worst severity Mild: N (%): 0
Hallucination, worst severity Moderate: Events: 3
Hallucination, worst severity Moderate: N (%): 3 (10.0)
Hallucination, worst severity Severe: Events: 0
Hallucination, worst severity Severe: N (%): 0
Hallucination: Events: 3
Hallucination: N (%): 3 (10.0)
Headache, worst severity Mild: Events: 12
Headache, worst severity Mild: N (%): 9 (30.0)
Headache, worst severity Moderate: Events: 0
Headache, worst severity Moderate: N (%): 0
Headache, worst severity Severe: Events: 0
Headache, worst severity Severe: N (%): 0
Headache: Events: 12
Headache: N (%): 9 (30.0)
Hypoaesthesia, worst severity Mild: Events: 2
Hypoaesthesia, worst severity Moderate: Events: 0
Hypoaesthesia, worst severity Moderate: N (%): 0
Hypoaesthesia, worst severity Severe: Events: 0
Hypoaesthesia, worst severity Severe: N (%): 0
Hypoaesthesia: Events: 2
Illusion, worst severity Mild: Events: 7
Illusion, worst severity Moderate: Events: 6
Illusion, worst severity Severe: Events: 0
Illusion, worst severity Severe: N (%): 0
Illusion: Events: 25
Infections and infestations, worst severity Mild: Events: 2
Infections and infestations, worst severity Moderate: Events: 2
Infections and infestations, worst severity Severe: Events: 0
